Drawing on PubChem BioAssay (NCI), this text covers TGI for nine molecules.

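Test compounds were applied to cells in 96-well plates for 48 hours at 5 doses. Definition used: TGI = concentration required for complete inhibition of growth.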

Some test systems named below: SK-OV-3 ovarian; SK-MEL-5 melanoma; HOP-62 NSCLC; UACC-257 melanoma; UACC-62 melanoma; LOX IMVI melanoma; HS 578T breast; DU-145 prostate; MDA-MB-231 breast; SN12C renal; HT29 colon; U251 CNS; BT-549 breast; KM12 colon; MDA-MB-435.
What all share (test): NCI anticancer screen, dose series, 48 h

Consider `CCCCCCCCC/C=C1\CC(CO)(COC(=O)C2CCCCC2)OC1=O` (stereo not given), for which the TGI with SK-OV-3 ovarian turned out to be 70.8 µM; with SK-MEL-5 melanoma, 27.3 µM; in the assay on HOP-62 NSCLC, 27.9 µM; in the assay with UACC-257 melanoma, 87.4 µM; in the assay on UACC-62 melanoma it was 46.9 µM; in the assay with LOX IMVI melanoma, 24 µM. Besides, the TGI in the assay on HS 578T breast stood at 41 µM; with DU-145 prostate, 21.5 µM; in the assay on MDA-MB-231 breast it was 44.8 µM; with SN12C renal, 35.2 µM; in the assay with HT29 colon it was 42 µM; with U251 CNS, 42.6 µM. In addition, the TGI was 36.2 µM in the assay on BT-549 breast, 38.9 µM in the assay with KM12 colon and 34.4 µM with MDA-MB-435.

With `[O-][n+]1onc(-c2ccccc2)c1CN1CCOCC1`, the TGI in the assay on SK-OV-3 ovarian, in the assay on SK-MEL-5 melanoma, in the assay with HOP-62 NSCLC, with UACC-257 melanoma, in the assay with UACC-62 melanoma and with LOX IMVI melanoma was more than 100 µM throughout. The TGI in the assay on HS 578T breast, in the assay with DU-145 prostate, with MDA-MB-231 breast, with SN12C renal, with HT29 colon and with U251 CNS was more than 100 µM each time. The TGI with BT-549 breast, with KM12 colon and with MDA-MB-435 was more than 100 µM throughout.

Turning to `CCSC1=N/C(=C\c2ccco2)C(Cl)=N1`, the TGI in the assay with SK-OV-3 ovarian, with SK-MEL-5 melanoma, in the assay on HOP-62 NSCLC, in the assay on UACC-257 melanoma, in the assay on UACC-62 melanoma and with LOX IMVI melanoma was more than 100 µM in each case. Moreover, the TGI with HS 578T breast, in the assay on DU-145 prostate, in the assay with MDA-MB-231 breast, in the assay with SN12C renal, with HT29 colon and with U251 CNS was more than 100 µM each time. In addition, the TGI in the assay on BT-549 breast, in the assay with KM12 colon and with MDA-MB-435 was more than 100 µM in each case.

For the molecule `NC(N)=N/N=C/c1c(-c2ccc([N+](=O)[O-])cc2)nc2n1CCS2`, the TGI was determined as 43.2 µM in the assay with SK-OV-3 ovarian; 32 µM in the assay on SK-MEL-5 melanoma; 61.5 µM in the assay on HOP-62 NSCLC; 35.6 µM in the assay on UACC-257 melanoma; 35.3 µM in the assay with UACC-62 melanoma; 35 µM with LOX IMVI melanoma. For the same molecule, the TGI in the assay with HS 578T breast is 39.1 µM; in the assay with DU-145 prostate it was 28.1 µM; in the assay on MDA-MB-231 breast it was 16 µM; with SN12C renal, 19.2 µM; in the assay on HT29 colon it was 31 µM; in the assay with U251 CNS, 6.49 µM. The figures for the TGI with BT-549 breast, in the assay with KM12 colon and with MDA-MB-435 were 34.2 µM, 21.7 µM and 43.5 µM, respectively.

For `O=C(O)c1ccc(Nc2nc3ccccc3nc2-c2cccs2)cc1`, the TGI in the assay on SK-OV-3 ovarian, in the assay on SK-MEL-5 melanoma, in the assay with HOP-62 NSCLC, with UACC-257 melanoma, with UACC-62 melanoma and in the assay on LOX IMVI melanoma was more than 100 µM throughout. In addition, the TGI in the assay on HS 578T breast, with DU-145 prostate, in the assay with MDA-MB-231 breast, with SN12C renal, in the assay on HT29 colon and with U251 CNS was more than 100 µM in each case. Besides, the TGI in the assay on BT-549 breast, in the assay with KM12 colon and with MDA-MB-435 was more than 100 µM in each case.

As for `Nc1cn(Cc2ccccc2)c2nc(/C=C3/C=CC=CC3=O)c(O)n12`, the TGI in the assay with SK-OV-3 ovarian, with SK-MEL-5 melanoma, with HOP-62 NSCLC, with UACC-257 melanoma, with UACC-62 melanoma and in the assay with LOX IMVI melanoma was more than 100 µM each time. The TGI in the assay on HS 578T breast, with DU-145 prostate, in the assay with MDA-MB-231 breast, with SN12C renal, in the assay on HT29 colon and in the assay with U251 CNS was more than 100 µM throughout. For the same molecule, the TGI in the assay with BT-549 breast, in the assay on KM12 colon and in the assay with MDA-MB-435 was more than 100 µM each time.

As to `C=C1CC(C)(COc2ccc3ccc(=O)oc3c2)OC1=O` (stereo not given), the TGI was 21.4 µM in the assay with SK-OV-3 ovarian; 6.65 µM in the assay with SK-MEL-5 melanoma; 39.5 µM with HOP-62 NSCLC; 2.58 µM with UACC-257 melanoma; 13.2 µM with UACC-62 melanoma; 5.65 µM with LOX IMVI melanoma. The TGI in the assay on HS 578T breast was 24.3 µM; in the assay on DU-145 prostate it was 12.5 µM; in the assay with MDA-MB-231 breast, 24.6 µM; in the assay on SN12C renal, 25 µM; in the assay on HT29 colon, 9.66 µM; in the assay with U251 CNS, 27.1 µM. The TGI turned out to be 2.65 µM in the assay on BT-549 breast, 17.6 µM in the assay with KM12 colon and 9.35 µM with MDA-MB-435.

`COc1ccc(-c2c(CN3CCOCC3)sc3nc4ccccc4n23)cc1`: the TGI was 94.9 µM with SK-OV-3 ovarian; 98.8 µM in the assay with SK-MEL-5 melanoma; more than 100 µM with HOP-62 NSCLC; more than 100 µM in the assay on UACC-257 melanoma; more than 100 µM in the assay on UACC-62 melanoma; more than 100 µM in the assay on LOX IMVI melanoma. Besides, the TGI is more than 69.7 µM in the assay with HS 578T breast; more than 100 µM in the assay with DU-145 prostate; more than 68.9 µM in the assay on MDA-MB-231 breast; more than 100 µM in the assay on SN12C renal; 31.1 µM in the assay on HT29 colon; 41.5 µM in the assay with U251 CNS. Also, the values for the TGI with BT-549 breast, in the assay on KM12 colon and in the assay with MDA-MB-435 were more than 100 µM, more than 100 µM and 14.4 µM, respectively.

Regarding `N#Cc1c(Cl)/c(=C/O)c(=O)n2c1nc1ccccc12`, the TGI in the assay with SK-OV-3 ovarian, in the assay on SK-MEL-5 melanoma, with HOP-62 NSCLC, with UACC-257 melanoma, with UACC-62 melanoma and in the assay on LOX IMVI melanoma was more than 100 µM each time. The TGI in the assay with HS 578T breast is 94.7 µM; in the assay with DU-145 prostate, more than 100 µM; in the assay with MDA-MB-231 breast it was more than 100 µM; in the assay on SN12C renal, more than 100 µM; in the assay with HT29 colon it was more than 100 µM; with U251 CNS, more than 100 µM. For the same molecule, the TGI in the assay with BT-549 breast, with KM12 colon and in the assay on MDA-MB-435 was more than 100 µM each time.
